Test results reported in US20100099770A1, “METHOD FOR TREATING DIABETIC PERIPHERAL NEUROPATHIC PAIN” (SCHWARZ PHARMA AG, priority 2001, published 2010).
“And” between values parts separate entries of the source, which are not always exact repeats. Equal values may be shown once. Marks after values point to notes of the source that are not given here.

Assays:
[1] = test system: neuropathic pain (CHUNG), tactile stimulation; experiment: Neuropathic pain (CHUNG) test, tactile stimulation on lesioned paw; assay type: in vivo, rat; conditions: for FORCE INDUCING PAW-WITHDRAWAL, % change: compared with lesioned control; for FORCE INDUCING PAW-WITHDRAWAL, mean ± s.e.m.: lesioned paw
From the text: (§1) The following Tables 8 and 9 show the effects of harkoseride (hereinafter referred tows SPM 927), carbamazepine, levetiracetam, gabapentin and morphine in the neuropathic pain (CHUNG) test in the rat. Eight (8) rats per group were used.

[2] = test system: neuropathic pain (CHUNG), thermal stimulation; experiment: Neuropathic pain (CHUNG) test, thermal stimulation on lesioned paw; assay type: in vivo, rat
From the text: as §1

[3] = test system: formalin-induced nociception (paw licking); experiment: Subchronic inflammatory nociception in mice (formalin test); assay type: in vivo; conditions: for nociceptive threshold, early phase: 0-5 min after formalin (acute pain); for nociceptive threshold, late phase: 20-30 min after formalin (subchronic inflammatory pain)
Description: Subchronic inflammatory nocicpetion in mice was induced by the subplantar injection of formalin (0.02 ml of a 5% solution). Nociceptive behaviour (paw licking) was measured and quantified between 0 and 5 min (acute pain) and between 20 and 30 min (subchronic inflammatory pain) after formalin.
(§2) Drugs and experimental design: SPM 927 and GBP were suspended in 1% methylcellulose and administered i.p. at doses of 10 mg/kg, 20 mg/kg and 40 mg/kg. Pre-treatment time was 30 min before pain measurement. One group of animals served as controls and consequently received an injection of solvent (10 ml/kg) and another group of animals received a reference compound (Carrageenan test: 10 mg/kg indomethacin; Formalin test: 10 mg/kg morphine). Each compound was tested in a separate experiment and each experiment included a control and a reference group. 10 rats per group were used in the Carrageenan test and 6 mice per group in the formalin test.

[4] = test system: Carrageenan-induced mechanical hyperalgesia; experiment: Carrageenan-induced mechanical hyperalgesia, paw pressure (Randall-Sellito) test; assay type: in vivo, rats; conditions: for nociceptive threshold: inflamed paw, 3 h after carrageenan
Description: Carrageenan-induced mechanical hyperalgesia in rats was induced by subplantar injection of a 0.1 ml of a 2% carrageenan suspension and measured 3 h afterwards by the paw pressure (Randall-Sellito) test.
as §2

[5] = 16 mg/kg i.p. -30 min, compared with lesioned control
[6] = 16 mg/kg i.p. -30 min, lesioned paw
[7] = 32 mg/kg i.p. -30 min, compared with lesioned control
[8] = 32 mg/kg i.p. -30 min, lesioned paw
[9] = 64 mg/kg i.p. -30 min, compared with lesioned control
[10] = 64 mg/kg i.p. -30 min, lesioned paw
[11] = 10 mg/kg i.p. 30 min before measurement

For `CC[C@@H](C(N)=O)N1CCCC1=O` [Levetiracetam, levetiracetam], the “FORCE INDUCING PAW-WITHDRAWAL, % change” value ([1]; 16 mg/kg i.p. -30 min) was “+32% (b)”, the “FORCE INDUCING PAW-WITHDRAWAL, mean ± s.e.m.” value ([1]; 16 mg/kg i.p. -30 min) was 23.0 ± 4.0 NS (b) g and the “FORCE INDUCING PAW-WITHDRAWAL, % change” value ([1]; 32 mg/kg i.p. -30 min) was “+44% (b)”. The “FORCE INDUCING PAW-WITHDRAWAL, mean ± s.e.m.” value ([1]; 32 mg/kg i.p. -30 min) was 25.0 ± 5.2 NS (b) g, the “FORCE INDUCING PAW-WITHDRAWAL, % change” value ([1]; 64 mg/kg i.p. -30 min) was “+14% (b)” and the “FORCE INDUCING PAW-WITHDRAWAL, mean ± s.e.m.” value ([1]; 64 mg/kg i.p. -30 min) was 19.8 ± 4.1 NS (b) g. For the same compound, the “PAW-WITHDRAWAL LATENCY, % change” value [2, 5] was “+17% (b)”, the “PAW-WITHDRAWAL LATENCY, mean ± s.e.m.” value [2, 6] was 19.0 ± 3.6 NS (b) sec and the “PAW-WITHDRAWAL LATENCY, % change” value [2, 7] was “+5% (b)”. The “PAW-WITHDRAWAL LATENCY, mean ± s.e.m.” value [2, 8] was 17.1 ± 2.9 NS (b) sec, the “PAW-WITHDRAWAL LATENCY, % change” value [2, 9] was “+63% (b)” and the “PAW-WITHDRAWAL LATENCY, mean ± s.e.m.” value [2, 10] was 26.6 ± 6.0 NS (b) sec.

For `NC(=O)N1c2ccccc2C=Cc2ccccc21` [Carbamazepine, carbamazepine], the “FORCE INDUCING PAW-WITHDRAWAL, % change” value ([1]; 16 mg/kg i.p. -30 min) was “+21% (b)”, the “FORCE INDUCING PAW-WITHDRAWAL, mean ± s.e.m.” value ([1]; 16 mg/kg i.p. -30 min) was 21.0 ± 2.3 NS (b) g and the “FORCE INDUCING PAW-WITHDRAWAL, % change” value ([1]; 32 mg/kg i.p. -30 min) was “+121% (b)”. The “FORCE INDUCING PAW-WITHDRAWAL, mean ± s.e.m.” value ([1]; 32 mg/kg i.p. -30 min) was 38.4 ± 8.1 (b) g, the “FORCE INDUCING PAW-WITHDRAWAL, % change” value ([1]; 64 mg/kg i.p. -30 min) was “+125% (b)” and the “FORCE INDUCING PAW-WITHDRAWAL, mean ± s.e.m.” value ([1]; 64 mg/kg i.p. -30 min) was 39.2 ± 9.1 (b) g. The “PAW-WITHDRAWAL LATENCY, % change” value [2, 5] was “+118% (b)”, the “PAW-WITHDRAWAL LATENCY, mean ± s.e.m.” value [2, 6] was 35.6 ± 4.1 (b) sec and the “PAW-WITHDRAWAL LATENCY, % change” value [2, 7] was “+39% (b)”. The “PAW-WITHDRAWAL LATENCY, mean ± s.e.m.” value [2, 8] was 22.7 ± 4.3 NS (b) sec, the “PAW-WITHDRAWAL LATENCY, % change” value [2, 9] was “+77% (b)” and the “PAW-WITHDRAWAL LATENCY, mean ± s.e.m.” value [2, 10] was 28.8 ± 6.9 NS (b) sec.

In the case of `NCC1(CC(=O)O)CCCCC1` [GBP, gabapentin], the “nociceptive threshold, early phase” value ([3]; 10 mg/kg i.p.) is reported as 98 ± 20 s, the “nociceptive threshold, late phase” value ([3]; 10 mg/kg i.p.) is reported as 133 ± 30 s and the “nociceptive threshold, early phase” value ([3]; 20 mg/kg i.p.) is reported as 102 ± 17 s. For the same compound, the “nociceptive threshold, late phase” value ([3]; 20 mg/kg i.p.) was 118 ± 13 s, the “nociceptive threshold, early phase” value ([3]; 40 mg/kg i.p.) was 72 ± 10 s and the “nociceptive threshold, late phase” value ([3]; 40 mg/kg i.p.) was 73 ± 13 s. The “effect on formalin-induced nociceptive response (in words)” value ([3]; 10, 20, 40 mg/kg i.p.) was “slightly but not significantly inhibited”, the nociceptive threshold [4, 11] was 254 ± 39 and the nociceptive threshold ([4]; 20 mg/kg i.p. 30 min before measurement) was 296 ± 31. For the same compound, the nociceptive threshold ([4]; 40 mg/kg i.p. 30 min before measurement) was 282 ± 33, the “effect on Carrageenan-induced mechanical hyperalgesia (in words)” value ([4]; 10, 20, 40 mg/kg i.p.) was “no significant effect” and the “FORCE INDUCING PAW-WITHDRAWAL, % change” value ([1]; 32 mg/kg i.p. -30 min) was −1% (b). For the same compound, the “FORCE INDUCING PAW-WITHDRAWAL, mean ± s.e.m.” value ([1]; 32 mg/kg i.p. -30 min) was 17.2 ± 3.0 NS (b) g, the “FORCE INDUCING PAW-WITHDRAWAL, % change” value ([1]; 64 mg/kg i.p. -30 min) was “+35% (b)” and the “FORCE INDUCING PAW-WITHDRAWAL, mean ± s.e.m.” value ([1]; 64 mg/kg i.p. -30 min) was 23.5 ± 4.2 NS (b) g. The “FORCE INDUCING PAW-WITHDRAWAL, % change” value ([1]; 128 mg/kg i.p. -30 min) was “+93% (b)”, the “FORCE INDUCING PAW-WITHDRAWAL, mean ± s.e.m.” value ([1]; 128 mg/kg i.p. -30 min) was 33.6 ± 6.7 (b) g and the “PAW-WITHDRAWAL LATENCY, % change” value [2, 7] was “+18% (b)”. For the same compound, the “PAW-WITHDRAWAL LATENCY, mean ± s.e.m.” value [2, 8] was 19.3 ± 3.6 NS (b) sec, the “PAW-WITHDRAWAL LATENCY, % change” value [2, 9] was “+75% (b)” and the “PAW-WITHDRAWAL LATENCY, mean ± s.e.m.” value [2, 10] was 28.5 ± 5.4 NS (b) sec. The “PAW-WITHDRAWAL LATENCY, % change” value ([2]; 128 mg/kg i.p. -30 min, compared with lesioned control) was “+66% (b)” and the “PAW-WITHDRAWAL LATENCY, mean ± s.e.m.” value ([2]; 128 mg/kg i.p. -30 min, lesioned paw) was 27.1 ± 5.2 NS (b) sec.

`COc1ccc2c(c1)c(CC(=O)O)c(C)n2C(=O)c1ccc(Cl)cc1` [Indomethacin, indomethacin] was tested, and the nociceptive threshold [4, 11] was 370 ± 15^b and 384 ± 11^b.

`CN1CC[C@]23c4c5ccc(O)c4O[C@H]2[C@@H](O)C=C[C@H]3[C@H]1C5` [Morphine, morphine] was tested, and the “nociceptive threshold, early phase” value ([3]; 10 mg/kg i.p.) was 8 ± 6^a s and 6 ± 3^a s, the “FORCE INDUCING PAW-WITHDRAWAL, % change” value ([1]; 16 mg/kg i.p. -30 min) was “+164% (b)” and the “FORCE INDUCING PAW-WITHDRAWAL, mean ± s.e.m.” value ([1]; 16 mg/kg i.p. -30 min) was 45.9 ± 8.8 (b) g. The “PAW-[…], % change” value [2, 5] was “+160% (b)” and the “PAW-[…], mean ± s.e.m.” value [2, 6] was 42.4 ± 1.9 (b) sec.
